Common to all, as to assay type: physicochemical
The nature of data set [1]: Encapsulation efficiency of lipid nanoparticles, Quant-it Ribogreen RNA assay. As to conditions: LNP of lipid/DSPC/cholesterol/PEG-lipid 50:10:38.5:1.5 encapsulating hEPO mRNA. The procedure:
(§1) Briefly, a cationic lipid provided herein, DSPC, cholesterol, and PEG-lipid were solubilized in ethanol at a molar ratio of 50:10:38.5:1.5, and mRNA were diluted in 10 to 50 mM citrate buffer, pH=4. The LNPs were prepared at a total lipid to mRNA weight ratio of approximately 10:1 to 30:1 by mixing the ethanolic lipid solution with the aqueous mRNA solution at a volume ratio of 1:3 using a microfluidic apparatus, total flow rate ranging from 9-30 mL/min. Ethanol were thereby removed and replaced by DPBS using dialysis. Finally, the lipid nanoparticles were filtered through a […] sterile filter.
(§2) Lipid nanoparticle size were determined by dynamic light scattering using a Malvern Zetasizer Nano ZS (Malvern UK) using a […] backscatter detection mode. The encapsulation efficiency of lipid nanoparticles were determined using a Quant-it Ribogreen RNA quantification assay kit (Thermo Fisher Scientific, UK) according to the manufacturer's instructions.

Data set [2] is described as follows: Lipid nanoparticle size and polydispersity by dynamic light scattering. As to conditions: LNP of lipid/DSPC/cholesterol/PEG-lipid 50:10:38.5:1.5 encapsulating hEPO mRNA. The procedure: as §1, §2
Data set [3] in a line: Apparent pKa of LNP formulations, TNS fluorescence assay. As to conditions: LNP cationic lipid/DSPC/cholesterol/DMG-PEG 50/10/38.5/1.5 mol %. The procedure:
As reported in literature, the apparent pKa of LNP formulations correlates with the delivery efficiency of LNPs for nucleic acids in vivo. The apparent pKa of each formulation was determined using an assay based on fluorescence of 2-(p-toluidino)-6-napthalene sulfonic acid (TNS). LNP formulations comprising of cationic lipid/DSPC/cholesterol/DMG-PEG (50/10/38.5/1.5 mol %) in PBS were prepared as described above. TNS was prepared as a 300 μM stock solution in distilled water. LNP formulations were diluted to 0.1 mg/mL total lipid in 3 mL of buffered solutions containing 50 mM sodium citrate, 50 mM sodium phosphate, 50 mM sodium borate, and 30 mM sodium chloride where the pH ranged from 3 to 9. An aliquot of the TNS solution was added to give a final concentration of […] and following vortex mixing fluorescence intensity was measured at room temperature in a Molecular Devices Spectramax iD3 spectrometer using excitation and mission wavelengths of 325 nm and 435 nm. A sigmoidal best fit analysis was applied to the fluorescence data and the pKa value was measured as the pH giving rise to half-maximal fluorescent intensity.

Results on 30 molecules are retold here after patent publication US20230348362A1, “LIPID COMPOUNDS AND LIPID NANOPARTICLE COMPOSITIONS” (Suzhou Abogen Biosciences Co., Ltd., priority 2021, published 2023).

As to `CCCCCCCC/C=C\CCCCCCCC(=O)OCCCCCN(CCO)CCN(CCCCCNC(=O)CC(CCCCCC)CCCCCCCC)C1CCCCCC1` (stereo not shown) [Compound 152], the “Encapsulation Efficiency” value in data set [1] is listed as 91.68%. Also, in data set [2], the polydispersity was determined as 0.031 and the “size (nm)” value came out at 83.28 nm. Moreover, in data set [3], the “Apparent Pka” value came out at 6.646.
The matching figures for `CCCCCCCCC(CCCCCC)CNC(=O)CCCCN(CCO)CCN(CCCCC(COC(=O)CCCCCCC)COC(=O)CCCCCCC)C1CCCC1` (stereo not shown) [Compound 227]: 91.70%, 0.048, 83.54 nm and 6.872.
Taken in the same sequence, the figures for `CCCCCCCCC(CCCCCCCC)COC(=O)CCCCCN(CCO)CCCCN(CCCCCC(=O)OCC(CCCCCCCC)CCCCCCCC)C1CCC1` [Compound 86] were 95.02%, 0.043, 86.61 nm and 6.814.
Consider `CCCCCCCCC(CCCCCCCC)COC(=O)CCCCCN(C)C1CCC(N(CCO)CCCCCC(=O)OCC(CCCCCCCC)CCCCCCCC)CC1` (stereo not shown) [Compound 64], for which the “Encapsulation Efficiency” value in data set [1] was 97.95%. In addition, in data set [2], the polydispersity was determined as 0.177 and the “size (nm)” value was found to be 81.36 nm. The “Apparent Pka” value in data set [3] is listed as 7.262.
The matching figures for `CCCCCCCCCCCOC(=O)CCCCCN(CCN(CCCCCC(=O)OCC(CCCCCCCC)CCCCCCCC)CCNc1c(NC)c(=O)c1=O)C1CCC1` [Compound 82]: 91.54%, 0.066, 67.32 nm and 6.599.
Taken in the same sequence, the figures for `CCCCCCCCCCCOC(=O)CCCCCN(CCN(CCO)CCCCCC(=O)OCC(CCCCCCCCCC)CCCCCCCCCC)C1CCCCC1` [Compound 47] were 91.0%, 0.037, 66.29 nm and 6.298.
For `CCCCCCCCCCCOC(=O)CCOCCN(CCN(CCO)CCOCCC(=O)OCC(CCCCCCCC)CCCCCCCC)C1CCCCC1` [Compound 117], in data set [1], the “Encapsulation Efficiency” value is on record as 89.34%. In data set [2], the polydispersity is recorded as 0.050 and the “size (nm)” value worked out at 79.67 nm.
Take `CCCCCCCC(=O)OCC(CCCCN1CCC(N(CCO)CCCCC(COC(=O)CCCCCCC)COC(=O)CCCCCCC)CC1)COC(=O)CCCCCCC` [Compound 180]: the “Apparent Pka” value in data set [3] is 6.699.
With `CCCCCCCCCCCOC(=O)CCCCCN1CCC(N(CCO)CCCCCCCC(=O)OC(CCCCCCCC)CCCCCCCC)CC1` [Compound 174], the “Encapsulation Efficiency” value in data set [1] is listed as 91.79%. In data set [2], the polydispersity came to 0.063 and the “size (nm)” value stood at 78.27 nm.
Regarding `CCCCCCCCC(CCCCCC)COC(=O)CCCCCN(C)CCN(CCO)CCCCC(COC(=O)CCCCCCC)COC(=O)CCCCCCC` (stereo not shown) [Compound 156], in data set [1], the “Encapsulation Efficiency” value turned out to be 89.69%. Further, in data set [2], the polydispersity is listed as 0.190 and the “size (nm)” value was found to be 73.36 nm.
The matching figures for `CCCCCCCCCCCCCCOCC(CN(CCN(CCO)CCCCCC(=O)OCC(CCCCCCCC)CCCCCCCC)C1CCC1)OCCCCCCCC` (stereo not shown) [Compound 20]: 95.8%, 0.015 and 74.98 nm.
The matching figures for `CCCCCCCCC(CCCCCC)CNC(=O)CCN(CCO)CCN(CCCCC(COC(=O)CCCCCCC)COC(=O)CCCCCCC)C1CCCCCCC1` (stereo not shown) [Compound 213]: 88.38%, 0.07 and 110.8 nm.
For `CCCCCCCCC(CCCCCC)CNC(=O)CCCCCN(CCCCN(CCO)CCCCC(COC(=O)CCCCCCC)COC(=O)CCCCCCC)C1CCCCC1` (stereo not shown) [Compound 197], in data set [1], the “Encapsulation Efficiency” value is 91.45%. Also, in data set [2], the polydispersity came out at 0.158 and the “size (nm)” value is recorded as 70.01 nm.
Turning to `CCCCCCCCC(CCCCCC)COC(=O)CCCCCN(CCO)CCN(CCCCC(COC(=O)CCCCCCC)COC(=O)CCCCCCC)C1CCC1` (stereo not shown) [Compound 135], the “Encapsulation Efficiency” value in data set [1] came to 87.16%. Also, in data set [2], the polydispersity worked out at 0.035 and the “size (nm)” value worked out at 124.60 nm.
On to `CCCCCCCCC(CCCCCC)C(=O)OCCCCCCN(CCO)CCN(CCCCCCOC(=O)C(CCCCCC)CCCCCCCC)C1CCC1` (stereo not shown) [Compound 69], for which the “Encapsulation Efficiency” value in data set [1] is 88.86%. For the same molecule, in data set [2], the polydispersity is reported as 0.096 and the “size (nm)” value is 60.99 nm.
For the molecule `CCCCCCCCCCCOC(=O)CCCCCN(CCN(CCO)CCCCCC(=O)OCC(CCCCCC)CCCCCCCC)C1CCCCC1` (stereo not shown) [Compound 6], the “Encapsulation Efficiency” value in data set [1] is recorded as 87.7%. Also, in data set [2], the polydispersity is 0.089 and the “size (nm)” value came out at 101.6 nm.
The matching figures for `CCCCCCCCCCCOC(=O)CCCCCN(CCN(CCO)CCCCCC(=O)N(CCCCCCCC)CCCCCCCC)C1CCCCC1` [Compound 90]: 82.56%, 0.030 and 101.70 nm.
In the case of `CCCCCCCCCCCOC(=O)CCCCCN(CCN(CCO)CCCCCC(=O)OCC(CCCCCCCC)CCCCCCCC)C1CCCC1` [Compound 130], in data set [1], the “Encapsulation Efficiency” value is recorded as 91.06%. In addition, in data set [2], the polydispersity worked out at 0.060 and the “size (nm)” value is listed as 76.86 nm.
With `CCCCCCCC(=O)OCC(CCCCN(CC=C(C)C)CCN(CCO)CCCCC(COC(=O)CCCCCCC)COC(=O)CCCCCCC)COC(=O)CCCCCCC` [Compound 162], the “Encapsulation Efficiency” value in data set [1] is 85.46%. In data set [2], the polydispersity is 0.068 and the “size (nm)” value came to 82.68 nm.
Taken in the same sequence, the figures for `CCCCCCCCC(CCCCCC)CNC(=O)CCCCCN(CCO)CCN(CCCCC(COC(=O)CCCCCCC)COC(=O)CCCCCCC)C1CCCC1` (stereo not shown) [Compound 138] were 90.03%, 0.107 and 81.24 nm.
The matching figures for `CCCCCCCCC(CCCCCCCC)CNC(=O)CCCCCN1CCC(N(CCO)CCCCCC(=O)NCC(CCCCCCCC)CCCCCCCC)CC1` [Compound 172]: 93.55%, 0.061 and 69.59 nm.
Regarding `CCCCCCCCCCCOC(=O)CCCCCN(CCN(CCO)CCCCCNP(=O)(OCCCCCCCCC)OCCCCCCCCC)C1CCCCC1` [Compound 100], the “Encapsulation Efficiency” value in data set [1] turned out to be 85.49%. In data set [2], the polydispersity is 0.085 and the “size (nm)” value is 93.16 nm.
Taken in the same sequence, the figures for `CCCCCCCCCCCCCCCCOC(=O)CCCCCN(CCN(CCO)CCCCCC(=O)OCC(CCCCCCCC)CCCCCCCC)C1CCCCC1` [Compound 104] were 92.43%, 0.044 and 66.62 nm.
The matching figures for `CCCCCCCCCCCC(=O)OCCCCCN(CCN(CCO)CCCCCNC(=O)CC(CCCCCCCC)CCCCCCCC)C1CCCCC1` [Compound 59]: 95.1%, 0.063 and 70.3 nm.
The matching figures for `CCCCCCCCCOC(=O)CCCCCCCN(CCO)C1CCN(CCCCCCCC(=O)OC(CCCCCCCC)CCCCCCCC)CC1` [Compound 176]: 95.27%, 0.123 and 65.70 nm.
`CCCCCCCCCCCC(=O)OCCCCCN(CCN(CCO)CCOCCOC(=O)CC(CCCCCCCC)CCCCCCCC)C1CCCCC1` [Compound 98]: the “Encapsulation Efficiency” value in data set [1] amounted to 89.31%. Also, in data set [2], the polydispersity was 0.042 and the “size (nm)” value turned out to be 91.85 nm.
As for `CCCCCCCCCCCOC(=O)CCCCCN(CCN(CCO)CCCCCC(=O)NCC(CCCCCCCC)CCCCCCCC)C1CCCCC1` [Compound 44], in data set [1], the “Encapsulation Efficiency” value was determined as 92.6%. Moreover, in data set [2], the polydispersity came out at 0.081 and the “size (nm)” value came to 77.48 nm.
With `CCCCCCCCCCCOC(=O)CCCCCN(CCN(CCO)CCOCCC(=O)OCC(CCCCCCCC)CCCCCCCC)C1CCC1` [Compound 114], the “Encapsulation Efficiency” value in data set [1] stood at 90.35%. In data set [2], the polydispersity stood at 0.044 and the “size (nm)” value was determined as 81.25 nm.
Taken in the same sequence, the figures for `CCCCCCCCC(CCCCCC)CNC(=O)CCCCCN(C)CCN(CCO)CCCCC(COC(=O)CCCCCCC)COC(=O)CCCCCCC` (stereo not shown) [Compound 158] were 89.17%, 0.058 and 63.54 nm.
As to `CCCCCCCCC(CCCCCCCC)CNC(=O)CCCCCN(CCO)CCN(CCCCCC(=O)NCC(CCCCCCCC)CCCCCCCC)C1CCC1` [Compound 11], in data set [1], the “Encapsulation Efficiency” value is listed as 82.8%. In data set [2], the polydispersity is 0.055 and the “size (nm)” value was 66.15 nm.
